Data taken from article PMC7516017, “Organoids to Study Intestinal Nutrient Transport, Drug Uptake and Metabolism – Update to the Human Model and Expansion of Applications” (Frontiers in Bioengineering and Biotechnology, 2020).
Like-named read-outs stand apart in the source and are kept apart here.

Columns and labels:
[1] = tested on: sodium-proton exchangers (NHEs); assay: Live-cell imaging of intracellular pH after Gly-Sar with NHE inhibitors; assay type: cell-based, mouse; settings: BCECF-AM, murine small intestinal organoids, 50mM Gly-Sar, 100µM Amilorid or 50µM S1611
Procedure: (§1) Intestinal organoids – Transport & Metabolism […]
(§2) addition of fructose. Following incubation, substrate/inhibitor solutions were removed from intact […]
centrifuged (300g, 10min). For “broken up” organoids, dissociated organoids were centrifuged (300g, 3min) and washed three times with PBS. […]
(§3) 1.8. Imaging of intracellular acidification
(§4) 100µM Amilorid, and 50µM S1611 (Sanofi Aventis). Image series were captured using a Leica […]
(§5) Calculations and imaging data […]
(§6) intestinal Wt organoids or in human duodenal organoids.

[2] = tested on: Caco-2; settings: cited from earlier work
Description: (§7) As mentioned before, peptide transporters also play a role in drug uptake, including peptidomimetics. […] For example, peptidomimetics have been designed for cancer therapy, e.g., to induce apoptosis ([Walensky et al., 2004]), sensitize cancer cells to chemotherapeu ...

[3] = target: T1, Pept1 (Mus musculus, UniProt Q9JIP7); assay: Competition assay using radiolabeled Gly-Sar, murine small intestinal organoids (wild type and Pept1 knockout); assay type: in vitro ADME; settings: 13mM cyclic hexapeptide (solubilized in DMSO) versus 5mM Gly-Sar (14C tracer 1mM); organoids from wild type and Pept1-deficient mice; HEPES-saline buffer pH 6.5, 37 °C; liquid scintillation; n = 5–6; Figure 2G
T1 construct: endogenous in cells; host or cells: murine small intestinal organoids (C57BL/6 wild type; Pept1-/- organoids as control)
T1 sequence (Q9JIP7 1-709): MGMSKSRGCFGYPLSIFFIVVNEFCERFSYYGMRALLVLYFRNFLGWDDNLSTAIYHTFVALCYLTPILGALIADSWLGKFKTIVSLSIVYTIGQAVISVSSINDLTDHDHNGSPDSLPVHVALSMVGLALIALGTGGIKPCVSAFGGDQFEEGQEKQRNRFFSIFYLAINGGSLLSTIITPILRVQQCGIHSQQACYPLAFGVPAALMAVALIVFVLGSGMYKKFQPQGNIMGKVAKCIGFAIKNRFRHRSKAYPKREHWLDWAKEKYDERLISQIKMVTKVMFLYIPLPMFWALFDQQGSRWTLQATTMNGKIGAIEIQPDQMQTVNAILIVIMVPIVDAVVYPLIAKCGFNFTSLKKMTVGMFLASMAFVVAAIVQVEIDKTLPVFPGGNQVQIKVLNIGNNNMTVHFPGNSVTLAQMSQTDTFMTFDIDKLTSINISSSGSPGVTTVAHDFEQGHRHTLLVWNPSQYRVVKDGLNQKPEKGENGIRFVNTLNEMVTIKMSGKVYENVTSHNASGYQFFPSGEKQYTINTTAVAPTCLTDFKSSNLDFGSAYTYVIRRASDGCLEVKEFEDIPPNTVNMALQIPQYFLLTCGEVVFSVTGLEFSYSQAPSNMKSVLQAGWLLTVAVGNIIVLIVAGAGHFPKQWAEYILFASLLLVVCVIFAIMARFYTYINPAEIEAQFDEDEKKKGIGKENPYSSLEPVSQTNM
Procedure: as §1, §2
(§8) centrifuged (300g, 10min). For “broken up” organoids, dissociated organoids were centrifuged (300g, 3min) and washed three times with PBS. During these steps, PBS for washing contained glucose and […]
(§9) 3 ml of Bioscint® Scintillation […]
(§10) organoids was quantified using a liquid scintillation counter (PerkinElmer). Residual amounts of all […]
in dissolved organoids derived from the ileum.
(§11) 1.7. Peptide and drug transport studies
The protocol for peptide and
(American Radiolabeled Chemicals). Final substrate concentrations used were: 5mM Gly-Sar […]
Weinmüller and Horst Kessler, and solubilized in DMSO. Peptide transporter studies were performed […]
as §3, §4, §5, §6

[4] = target: T2, PEPT1 (Homo sapiens, UniProt P46059); assay: Competition assay using radiolabeled Gly-Sar, human duodenal organoids; settings: HEPES-saline buffer pH 6.5, 37 °C, liquid scintillation, n = 5–6
T2 sequence (P46059 1-708): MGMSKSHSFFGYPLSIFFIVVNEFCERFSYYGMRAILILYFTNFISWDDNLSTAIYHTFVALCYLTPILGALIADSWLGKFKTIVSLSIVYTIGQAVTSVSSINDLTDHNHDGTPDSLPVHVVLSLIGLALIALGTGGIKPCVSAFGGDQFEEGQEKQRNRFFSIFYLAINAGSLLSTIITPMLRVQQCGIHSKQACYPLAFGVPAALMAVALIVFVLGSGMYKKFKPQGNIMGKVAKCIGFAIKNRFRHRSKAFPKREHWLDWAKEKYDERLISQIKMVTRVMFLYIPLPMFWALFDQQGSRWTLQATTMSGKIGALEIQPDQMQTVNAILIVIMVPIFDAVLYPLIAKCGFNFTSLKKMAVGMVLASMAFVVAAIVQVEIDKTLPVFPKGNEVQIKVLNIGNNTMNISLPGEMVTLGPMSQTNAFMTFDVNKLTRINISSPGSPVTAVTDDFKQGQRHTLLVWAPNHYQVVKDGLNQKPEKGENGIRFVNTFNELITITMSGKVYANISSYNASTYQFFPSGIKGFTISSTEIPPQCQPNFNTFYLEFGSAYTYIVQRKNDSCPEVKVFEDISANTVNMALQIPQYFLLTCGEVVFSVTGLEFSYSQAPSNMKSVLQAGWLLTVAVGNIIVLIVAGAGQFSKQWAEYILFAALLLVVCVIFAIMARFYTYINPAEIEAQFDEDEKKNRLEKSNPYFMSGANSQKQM
Procedure: Intestinal organoids – Transport & Metabolism fructose uptake assay. Inhibitors were added 10min prior to addition of glucose and 30min prior to addition of fructose. Following incubation, substrate/inhibitor solutions were removed from intact organoids embedded in matrigel and matrigel droplets were washed three times with PBS.
Subsequently, matrigel was dissolved by addition of cold PBS and organoids were resuspended and centrifuged (300g, 10min). For “broken up” organoids, dissociated organoids were centrifuged (300g, 3min) and washed three times with PBS. During these steps, PBS for washing contained glucose and fructose, respectively, to avoid excessive transport of substrates out of the cells. Organoid pellets were resuspended in a lysis buffer containing 150mM NaCl, 50 mM Tris-HCl, 1% Igepal CA-630, 0.5% DCA and a protease inhibitor mix, and incubated for 20min on ice. 3 ml of Bioscint® Scintillation solution (National Diagnostics) were added to the cell lysate and radiolabeled substrate taken up by organoids was quantified using a liquid scintillation counter (PerkinElmer). […]
1.7. […]
Transport activity was assessed by competitive inhibition of the uptake of radiolabeled dipeptide glycyl-sarcosin (Gly-Sar), a hydrolysis-resistant model substrate of Pept1. […]
were assessed using (non-labeled) substrates (Gly-Sar) and 14C-radiolabeled substrate tracers (American Radiolabeled Chemicals). […]

[5] = tested on: human duodenal organoids; assay: Live-cell imaging of intracellular acidification (BCECF-AM), human organoids; assay type: cell-based; settings: 40µM CCCP; for intracellular acidification: BCECF-AM 1μM, ratio F(λex490nm)/F(λex450nm), 50mM Gly-Sar, 50mM Gly-Gly, 5mM Cefadroxil, 50mM glucose, 50mM fructose as negative controls, minimum 6 experiments, representative courses
Procedure: as §11
For peptide and drug transport studies, human organoids were cultivated for 7-9 days after passaging. […]
as §3
For live-cell imaging of intracellular acidification, organoids were incubated with 1μM BCECF-AM (Life Technologies) in HEPES-saline buffer containing 0.01% pluronic F127, 375μM eserine and 2mM […]
substances used were: 50mM Gly-Sar, 50mM Gly-Gly, 5mM Cefadroxil, 40µM CCCP (Sigma), 100µM Amilorid, and 50µM S1611 (Sanofi Aventis). Image series were captured using a Leica […]
and the fluorescence ratio F(λex490nm)/ F(λex450nm) was calculated. Calculations and imaging data analyses were performed using the Leica Application Suite Advanced Fluorescence software. All imaging experiments were performed minimum 6 times and representative time courses are depicted in the manuscript. Imaging of intracellular acidification was performed as indicated in murine small intestinal Wt organoids or in human duodenal organoids.

[6] = tested on: human duodenal organoids; assay: Uptake of radiolabeled fructose with inhibitors/competitor; assay type: cell-based; settings: 14C-fructose, 2.1mM D-fructose; 1mM Phloretin or Rubusoside or 2.1mM D-glucose as competitor; inhibitors added 30min prior; dissolved (broken up) organoids, 45 min 37 °C, pH 7.4; liquid scintillation; n = 5–6
Procedure: (§12) Subsequently, medium was changed to CCM for 5 days. […]
(§13) 1.6. Glucose and Fructose transport studies
(§14) Grenoble, France) and transferred in tubes. After repeated (2x) centrifugation (200g, 5min) and […]
indicated substrate/inhibitor for 45 min at 37 °C. Transporter ac tivities were assessed using (non- […]
(§15) from Sigma) and 1mM Rubusoside (VWR, Avantor).
as §1, §2, §8, §9, §10
(§16) in dissolved organoids derived from the ileum. […]
as §5, §6

[7] = tested on: human organoids derived from different regions of the small intestine; assay: Uptake of radiolabeled glucose with transporter inhibitors; assay type: cell-based; settings: 14C-glucose, 5.8mM D-glucose; 1mM inhibitor added 10min prior; intact organoids in matrigel, HEPES-saline buffer pH 7.4, 30 min 37 °C; liquid scintillation; n = 5–6; Figure 2B
Procedure: as §12, §13, §14
Transporter ac tivities were assessed using (non- […]
as §15, §1, §2, §8, §9, §10, §16, §5, §6

[8] = humans; ref Becker et al., 2015; cited from earlier work
Description: as §7

N=C(N)NC(=O)c1nc(Cl)c(N)nc1N [Amiloride]
recovery of intracellular pH following exposure to Gly-Sar [1]: prevented the recovery of intracellular pH to basal levels
course of intracellular pH in the observed time span after Gly-Sar ([1]; Figures 3G,H): continuous influx of protons

C[C@@H]1NC(=O)[C@H](CC(=O)O)NC(=O)CNC(=O)[C@H](CCCNC(=N)N)NC(=O)[C@@H](C)N(C)C(=O)[C@H](C)N(C)C1=O [P2]
permeability in Caco-2 assay ([2]; ref Weinmuller et al., 2017): lacked permeability
peptide transporter-mediated uptake judged by competitive inhibition of radiolabeled Gly-Sar uptake [3]: actively transported independently of Pept1

C[C@@H]1NC(=O)[C@H](C)NC(=O)[C@@H](C)N(C)C(=O)[C@H](C)N(C)C(=O)[C@H](C)NC(=O)[C@H](C)NC1=O [P3]
competitive inhibition of radiolabeled Gly-Sar uptake ([4]; 13mM cyclic hexapeptide (solubilized in DMSO) versus 5mM Gly-Sar (14C tracer 1mM), human duodenal organoids, Figure 2H): significantly reduce radiolabeled Gly-Sar uptake
permeability in Caco-2 assay ([2]; library of N-methylated alanine peptides, ref Ovadia et al., 2011): highly permeable
peptide transporter-mediated uptake judged by competitive inhibition of radiolabeled Gly-Sar uptake [3]: no signs of peptide transporter-mediated uptake

CC1=C(C(=O)O)N2C(=O)[C@@H](NC(=O)[C@H](N)c3ccc(O)cc3)[C@H]2SC1 [cefadroxil]
intracellular acidification [5]: intracellular acidification was demonstrated

O=C(CO)[C@@H](O)[C@H](O)[C@H](O)CO [fructose, D-fructose]
intracellular acidification [5]: neither glucose nor fructose (used as negative controls) led to an intracellular acidification

OC[C@H]1OC(O)[C@H](O)[C@@H](O)[C@@H]1O (stereo partly drawn) [glucose]
intracellular acidification [5]: neither glucose nor fructose (used as negative controls) led to an intracellular acidification
effect on fructose transport [6]: diminished

O=C(CCc1ccc(O)cc1)c1c(O)cc(O)cc1O [phloretin]
effect on glucose uptake [7]: blunted glucose uptake, which was more pronounced
effect on fructose transport [6]: diminished

O=C(CCc1ccc(O)cc1)c1c(O)cc(O)cc1O[C@@H]1O[C@H](CO)[C@@H](O)[C@H](O)[C@H]1O [phloridzin]
effect on glucose uptake [7]: blunted glucose uptake

Cilengitide
half-life of excretion [8]: 4 h
metabolic stability [8]: completely stable

carbonyl cyanide m-chlorophenyl hydrazine [CCCP]
intracellular acidification [5]: intracellular acidification was demonstrated
intracellular pH on stimulation subsequent to Gly-Sar, Gly-Gly and cefadroxil ([5]; BCECF-AM, human duodenal organoids, Supplementary Figure 3A): additional decline in intracellular pH

glycyl-glycine [Gly-Gly]
intracellular acidification [5]: intracellular acidification was demonstrated
competitive inhibition of radiolabeled Gly-Sar uptake ([4]; 5mM Gly-Gly versus 5mM Gly-Sar (14C tracer 1mM), intact and broken up human duodenal organoids): significant reduction of Gly-Sar uptake in both approaches

glycyl-sarcosin [Gly-Sar]
intracellular acidification [5]: intracellular acidification was demonstrated
